For one test, the system named is barley. The test can be described thus: Growth height of barley, greenhouse (Example 9). Type of test: in vivo, barley (Villa). Particulars: for Plant height relative: control 100. From the text: (§1) In the greenhouse, the four cereals wheat ("Opal" variety), rye ("Petkuser"), barley ("Villa") and oats ("Flamingskrone") were sown in plastic dishes 11.5 cm in diameter in a sandy loam adequately supplied with nutrients. The active ingredients were applied at various rates to the soil and to the leaves. When applied to the soil, the active ingredient were sprayed onto the surface of the soil on the day of sowing; in the case of leaf treatment, the leaves were sprayed in the usual manner at a growth height of the plants of 10 cm. During the 18 day growth period, the treated plants grew much more slowly than the untreated control, a fact later confirmed by measurements of the stem length. Measurements were taken of 100 plants from each series.
(§2) The prior art agent used for comparison purposes was N-2-chloroethyl-N,N,N-trimethylammonium chloride (CCC; German Printed Application DAS No. 1,294,734).

For another test, the system named is oats. Description: Growth height of oats, greenhouse (Example 10). It counts as in vivo, oats (Flamingskrone). The note with it: soil; for Plant height relative: control 100.
Text: as §1, §2

The next test has as its system rye. The test can be described thus: Growth height of rye, greenhouse (Example 8). Type of test: in vivo, rye (Petkuser). Particulars: for Plant height relative: control 100.
Text: as §1, §2

`Clc1ccc(N2N=NC3C4CC(C5N=NC45)C32)cc1` (stereo not drawn) [drawing 352]: the Plant height in the test with barley (soil, 0.5 kg/ha) amounted to 28.0 cm; in the test with barley (soil, 1.0 kg/ha), 28.0 cm; in the test with barley (soil, 2.0 kg/ha), 23.5 cm; in the test on barley (soil, 6.0 kg/ha), 16.5 cm. For the same compound, the Plant height relative in the test with barley (soil, 0.5 kg/ha) was 88.9; with barley (soil, 1.0 kg/ha) it was 88.9; with barley (soil, 2.0 kg/ha), 74.6; in the test on barley (soil, 6.0 kg/ha) it was 52.4.
In the case of `Clc1ccc(N2N=NC3C4CC(C5N=NC45)C32)cc1` (stereo not drawn) [drawing 354], the Plant height in the test with barley (leaf, 0.125 kg/ha) is on record as 24.0 cm; with barley (leaf, 0.5 kg/ha), 23.0 cm; with barley (leaf, 1.0 kg/ha) it was 21.5 cm; in the test on barley (leaf, 2.0 kg/ha) it was 20.5 cm; in the test on barley (leaf, 4.0 kg/ha), 18.5 cm. For the same compound, the Plant height relative with barley (leaf, 0.125 kg/ha) stood at 80.0; in the test with barley (leaf, 0.5 kg/ha), 76.7; in the test on barley (leaf, 1.0 kg/ha), 71.7; in the test on barley (leaf, 2.0 kg/ha), 68.3; in the test with barley (leaf, 4.0 kg/ha) it was 61.7.
Turning to `Clc1ccc(N2N=NC3C4CC(C5N=NC45)C32)cc1` (stereo not drawn) [drawing 356], the Plant height came to 25.0 cm in the test with oats (0.5 kg/ha), 24.0 cm with oats (1.0 kg/ha), 21.0 cm with oats (2.0 kg/ha) and 15.0 cm in the test on oats (6.0 kg/ha). Moreover, the Plant height relative is 89.3 in the test on oats (0.5 kg/ha), 85.7 in the test on oats (1.0 kg/ha), 75.0 in the test with oats (2.0 kg/ha) and 53.6 in the test with oats (6.0 kg/ha).
Turning to `Brc1ccc(N2N=NC3C4CC(C5N=NC45)C32)cc1` (stereo not drawn) [drawing 351], the Plant height with rye (leaf, 0.125 kg/ha) is 25.0 cm; in the test on rye (leaf, 0.5 kg/ha) it was 20.5 cm; in the test on rye (leaf, 1.0 kg/ha), 22.0 cm; in the test with rye (leaf, 2.0 kg/ha), 18.0 cm; in the test on rye (leaf, 4.0 kg/ha), 18.5 cm. Also, the Plant height relative with rye (leaf, 0.125 kg/ha) is listed as 84.7; in the test with rye (leaf, 0.5 kg/ha) it was 69.5; in the test on rye (leaf, 1.0 kg/ha), 74.6; in the test with rye (leaf, 2.0 kg/ha) it was 61.0; in the test on rye (leaf, 4.0 kg/ha), 62.7.
Consider `Brc1ccc(N2N=NC3C4CC(C5N=NC45)C32)cc1` (stereo not drawn) [drawing 355], for which the Plant height with barley (leaf, 0.125 kg/ha) is 25.5 cm; in the test with barley (leaf, 0.5 kg/ha) it was 23.5 cm; in the test with barley (leaf, 1.0 kg/ha), 22.0 cm; with barley (leaf, 2.0 kg/ha), 20.5 cm; in the test with barley (leaf, 4.0 kg/ha) it was 20.0 cm. In addition, the Plant height relative in the test with barley (leaf, 0.125 kg/ha) was 85.0; with barley (leaf, 0.5 kg/ha), 78.3; in the test with barley (leaf, 1.0 kg/ha), 73.3; in the test on barley (leaf, 2.0 kg/ha), 68.3; in the test on barley (leaf, 4.0 kg/ha), 66.7.
Take `Clc1ccc(N2N=NC3C4CC(C5N=NC45)C32)cc1` (stereo not drawn) [drawing 348]: the Plant height in the test on rye (soil, 0.5 kg/ha) is 22.5 cm; in the test with rye (soil, 1.0 kg/ha) it was 19.0 cm; with rye (soil, 2.0 kg/ha), 13.0 cm; in the test on rye (soil, 6.0 kg/ha) it was 8.5 cm. In addition, the Plant height relative came out at 77.6 in the test on rye (soil, 0.5 kg/ha); 65.5 in the test on rye (soil, 1.0 kg/ha); 44.8 in the test on rye (soil, 2.0 kg/ha); 29.3 in the test on rye (soil, 6.0 kg/ha).
`Brc1ccc(N2N=NC3C4CC(C5N=NC45)C32)cc1` (stereo not drawn) [drawing 353]: the Plant height is 30.5 cm with barley (soil, 0.5 kg/ha); 29.0 cm with barley (soil, 1.0 kg/ha); 24.5 cm with barley (soil, 2.0 kg/ha); 19.0 cm in the test with barley (soil, 6.0 kg/ha). Also, the Plant height relative in the test on barley (soil, 0.5 kg/ha) was 96.8; with barley (soil, 1.0 kg/ha), 92.1; with barley (soil, 2.0 kg/ha) it was 77.8; in the test on barley (soil, 6.0 kg/ha) it was 60.3.
In the case of `Clc1ccc(N2N=NC3C4CC(C5N=NC45)C32)cc1` (stereo not drawn) [drawing 350], the Plant height came out at 24.5 cm in the test on rye (leaf, 0.125 kg/ha); 20.0 cm in the test on rye (leaf, 0.5 kg/ha); 18.5 cm in the test with rye (leaf, 1.0 kg/ha); 17.5 cm in the test on rye (leaf, 2.0 kg/ha); 16.0 cm in the test on rye (leaf, 4.0 kg/ha). Moreover, the Plant height relative in the test with rye (leaf, 0.125 kg/ha) stood at 83.1; with rye (leaf, 0.5 kg/ha) it was 67.8; in the test with rye (leaf, 1.0 kg/ha), 62.7; with rye (leaf, 2.0 kg/ha) it was 59.3; with rye (leaf, 4.0 kg/ha) it was 54.2.

(Values after patent publication US4257941A, “Polycyclic nitrogen-containing compounds” (BASF Aktiengesellschaft, priority 1976, dated 1981).)
